Legend:
[1] = tested on: Molt3; test: Cytotoxicity in Molt3; format: cell-based; details: Homo sapiens, MOLT-3; Table 2; read-out: IC50 in cancer cell lines, Molt3
Description: (§1) Ligase IV specificity of the compounds of the present invention inside the cells were also determined using Ligase IV knock out (KO) cell line N114 compared to the wild type Nalm6 (Table 2, FIGS. 5C, D, E and F). […] Table 1 showing IC50 of SCR7 derivatives in cancer cell lines Nalm6 and HeLa. IC50 was calculated using GraphPad Prism software from the percentage of viable cells following treatment with the compounds at 48 h. Table 2 showing IC50 of SCR116 and SCR132 in a panel of 16 cancer cell lines.

[2] = target: T1, Ligase III/XRCC1 (Homo sapiens, UniProt P49916); test: Inhibition of end joining by purified Ligase III/XRCC1; format: biochemical; details: 50, 100, 200, 500, 1000 μM
T1 construct: made in house
T1 sequence (P49916 43-1009): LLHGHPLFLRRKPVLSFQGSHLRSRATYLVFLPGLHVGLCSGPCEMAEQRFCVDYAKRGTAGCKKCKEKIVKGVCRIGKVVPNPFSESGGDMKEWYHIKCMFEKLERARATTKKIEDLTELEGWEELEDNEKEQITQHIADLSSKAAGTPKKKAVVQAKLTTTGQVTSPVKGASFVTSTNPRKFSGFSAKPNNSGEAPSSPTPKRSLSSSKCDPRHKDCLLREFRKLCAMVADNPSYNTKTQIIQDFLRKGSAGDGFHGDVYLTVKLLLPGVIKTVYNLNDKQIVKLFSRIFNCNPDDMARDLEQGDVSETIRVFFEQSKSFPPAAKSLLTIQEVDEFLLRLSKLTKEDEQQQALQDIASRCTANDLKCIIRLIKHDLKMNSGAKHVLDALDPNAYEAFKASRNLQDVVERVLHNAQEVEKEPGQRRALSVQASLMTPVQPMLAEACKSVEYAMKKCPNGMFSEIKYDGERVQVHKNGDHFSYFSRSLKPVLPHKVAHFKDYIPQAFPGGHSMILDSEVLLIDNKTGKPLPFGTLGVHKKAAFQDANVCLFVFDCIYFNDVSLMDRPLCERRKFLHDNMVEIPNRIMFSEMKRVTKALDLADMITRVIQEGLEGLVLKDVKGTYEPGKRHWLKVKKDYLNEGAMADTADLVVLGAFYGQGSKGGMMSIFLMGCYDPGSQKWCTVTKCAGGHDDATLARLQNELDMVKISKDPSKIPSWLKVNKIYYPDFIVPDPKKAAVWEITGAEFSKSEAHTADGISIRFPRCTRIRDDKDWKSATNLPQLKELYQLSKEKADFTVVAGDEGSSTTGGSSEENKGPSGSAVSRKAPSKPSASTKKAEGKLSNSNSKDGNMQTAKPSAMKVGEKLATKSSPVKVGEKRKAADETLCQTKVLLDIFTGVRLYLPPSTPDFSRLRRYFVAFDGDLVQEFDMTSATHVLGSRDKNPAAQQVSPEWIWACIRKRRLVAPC
T1 sequence (P18887 whole entry partner): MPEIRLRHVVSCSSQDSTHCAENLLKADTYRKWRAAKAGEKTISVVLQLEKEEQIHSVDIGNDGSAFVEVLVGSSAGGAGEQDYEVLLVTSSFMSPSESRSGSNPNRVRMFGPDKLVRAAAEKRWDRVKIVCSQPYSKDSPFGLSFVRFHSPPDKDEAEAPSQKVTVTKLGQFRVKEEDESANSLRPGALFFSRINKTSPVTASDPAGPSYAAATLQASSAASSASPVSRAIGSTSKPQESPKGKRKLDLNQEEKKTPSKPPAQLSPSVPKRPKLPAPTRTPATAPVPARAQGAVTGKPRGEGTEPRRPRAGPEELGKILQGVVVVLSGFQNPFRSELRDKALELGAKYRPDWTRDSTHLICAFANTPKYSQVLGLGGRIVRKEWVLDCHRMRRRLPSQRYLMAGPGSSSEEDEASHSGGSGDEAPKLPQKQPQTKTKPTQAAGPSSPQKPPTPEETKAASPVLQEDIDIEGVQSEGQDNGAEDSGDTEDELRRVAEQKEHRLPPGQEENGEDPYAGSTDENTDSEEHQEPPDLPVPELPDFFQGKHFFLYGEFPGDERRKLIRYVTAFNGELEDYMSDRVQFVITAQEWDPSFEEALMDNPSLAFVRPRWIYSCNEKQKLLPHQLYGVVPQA
Description: The compounds of the present invention were analysed for inhibition of end joining with purified Ligase I (FIG. 3A) and Ligase III/XRCC1 (FIG. 3F). The compounds were incubated with either purified Ligase I (FIG. 3B-E) or with Ligase III/XRCC1 (FIGS. 3G-J) in suitable NHEJ buffer at 25° C. for 30 min, followed by addition of radiolabeled DNA, and further incubation for 1 h at 25° C. Products were purified using phenol: chloroform, and run on denaturing PAGE.
Effects of these compounds on NHEJ and Ligase IV mediated joining were evaluated (FIG. 4A-K). The reactions were terminated by EDTA (10 mM), products were purified using phenol/chloroform, precipitated with chilled ethanol and glycogen, and resolved on 8% denaturing PAGE. The gel was dried, exposed, and signal was detected using phosphor Imager FLA9000 (Fuji, Japan), and quantified in MultiGauge software expressed as Photo Stimulated Luminescence Units (PSLU). Inhibition of end joining was reported at 200 μM and 100 μM, respectively for SCR116 and SCR132 (FIGS. 4A, B, C and D), with >50% inhibition at 200 and 100 μM concentrations, respectively. […] FIG. 4K depict the purification profile of Ligase IV and XRCC4. […]

[3] = tested on: Raji; test: Cytotoxicity in Raji; format: cell-based; details: Homo sapiens, Raji; Table 2; read-out: IC50 in cancer cell lines, Raji
Description: as §1

[4] = tested on: HCT116; test: Cytotoxicity in HCT116; format: cell-based; details: Homo sapiens, HCT-116; Table 2; read-out: IC50 in cancer cell lines, HCT116
Description: as §1

[5] = mouse, in vivo, po
Description: The bioavailability of the compounds of the present disclosure were analysed in mice serum at different time points (0.5, 1, 2, 4, 6, 8, 10, 12, 24 and 48 h) by HPLC at 232 nm wavelength (FIGS. 10N-P).

[6] = tested on: B cells (CD19+) and T cells (CD3+); test: B and T cells after 28 days SCR116 treatment; format: in vivo, swiss albino mice; details: oral 80, 160 and 320 mg/kg b.wt.
Description: FIG. 14(A-B) depicts the evaluation of effect on B cells after SCR 116 treatment for 28 days in normal swiss albino mice A. After oral administration of low, medium, and high concentrations of SCR116 (80, 160 and 320 mg/kg b.wt. respectively). B is showing quantitation of the total B cell population (CD19+). (ns: not significant, *p<0.05: **p<0.005), in accordance with an implementation of the present disclosure.
FIG. 15(A-B) depicts the evaluation of the effect on T cells after SCR116 treatment for 28 days in normal swiss albino mice. A. After oral administration of low, medium and high concentrations of SCR116 (80, 160 and 320 mg/kg b.wt. respectively). B. is showing the quantitation of the total T cell population (CD3+). (ns: not significant, *p<0.05: **p<0.005), in accordance with an implementation of the present disclosure.
FIG. 13 depicts the blood parameters analysis of Swiss albino mice after 10 days of dose-ranging study after treating with SCR116 and SCR132. A. RBC (n=3). B. Hemoglobin (n=3). C. MCHC (n=3). D. Total leukocyte count (n=3). E. Platelet count (n=3) (ns: not significant, *p<0.05: **p<0.005).

| Compound | IC50 [1] | Inhibition of end joining with Ligase III/XRCC1 [2] | IC50 [3] | IC50 [4] | Course of serum level [5] | Production of B cells [6] | Production of T cells [6] |
| --- | --- | --- | --- | --- | --- | --- | --- |
| Nc1nc(S)nc(O)c1/N=C/c1ccc([N+](=O)[O-])s1 [Compound 16, (E)-6-amino-2-mercapto-5-(((5-nitrothiophen-2-yl)methylene)amino)pyrimidin-4-ol] | 3.1 µM | inhibited end joining at highest concentrations of 500 and 1000 μM | 4.37 µM | 5.2 µM | continued to increase till 10 h | no significant changes | no significant changes |
| Nc1nc(S)nc(O)c1/N=C/c1sc(Cl)nc1Cl [Compound 32, (E)-6-amino-5-(((2,4-dichlorothiazol-5-yl)methylene)amino)-2-mercaptopyrimidin-4-ol] | 0.795 µM | no significant inhibition | 1.59 µM | 2 µM | became stabilized between 4 h and 6 h | – | – |

From patent US20250100977A1, “MERCAPTOPYRIMIDINE COMPOUNDS THAT INHIBIT NONHOMOLOGOUS END JOINING AND METHODS THEREOF” (INDIAN INSTITUTE OF SCIENCE, priority 2021, published 2025)
